Drawing on paper PMC8072159, “5-Bis-(2,6-difluoro-benzylidene) Cyclopentanone Acts as a Selective 11β-Hydroxysteroid Dehydrogenase one Inhibitor to Treat Diet-Induced Nonalcoholic Fatty Liver Disease in Mice” (Frontiers in Pharmacology, 2021), this text covers IC50 and melting point for 6 compounds.

One data set has as its system rat 11β-HSD1. On the set-up: method as in Lin et al., 2013. Conditions: ref Lin et al., 2013; cited from earlier work.
The test system of another data set is human 11β-HSD1. Further details: method as in Lin et al., 2013. Conditions: ref Lin et al., 2013; cited from earlier work.

As to `O=C1C(=Cc2ccccc2Br)CCC1=Cc1ccccc1Br` [5-bis-(2-bromo-benzylidene) cyclopentanone], the results for the IC50 in the data set on rat 11β-HSD1 and with human 11β-HSD1 were 148 nM and 346 nM, respectively. `O=C1/C(=C/c2ccc(Cl)cc2Cl)CC/C1=C\c1ccc(Cl)cc1Cl` [WZS01, (2E,5E)-2,5-bis(2,4-dichlorobenzylidene) Cyclopentanone] returned a melting point of 209.4 to 212 °C.

Take `Cc1ccc(/C=C2\CC/C(=C\c3ccc(C)cc3C)C2=O)c(C)c1` [WZS03, (2E,5E)-2,5-bis(2,4-dimethylbenzylidene) Cyclopentanone]: the melting point lay in the range of 128.8 to 131.8 °C. In the case of `O=C1/C(=C/c2cccc(Cl)c2Cl)CC/C1=C\c1cccc(Cl)c1Cl` [WZS04, (2E,5E)-2,5-bis(2,3-dichlorobenzylidene) Cyclopentanone], the melting point fell in the range of 204.6 to 206.8 °C.

The compound `COc1cc(OC)c(/C=C2\CC/C(=C\c3c(OC)cc(OC)cc3OC)C2=O)c(OC)c1` [WZS05, (2E,5E)-2,5-bis(2,4,6-Trimethoxybenzylidene) Cyclopentanone] returned a melting point of 195 to 197.8 °C.

Regarding `O=C1/C(=C/c2cc(F)ccc2F)CC/C1=C\c1cc(F)ccc1F` [WZS07, (2E,5E)-2,5-bis(2,5-difluorobenzylidene) Cyclopentanone], the melting point fell in the range of 208.1 to 209.8 °C.

What is called IC50 is the concentration at which inhibition is half-maximal. By melting point is commonly meant the temperature of the solid-liquid transition.
